One data set relates to MXT tumor. In words: MXT mouse mammary tumor model: tumor volume and survival. Format: in vivo. The conditions noted are these: Example 31. From the text: Tumors were developed in first generation hybrid BDF1 (C57 B1 female×DBA/2 male) adult female mice kept at specified pathogen free (SPF) hygienic level. Suspensions of HL-60 human leukemia cells, or approximately 0.1 cm^3 volume of tumor tissue derived from HT-168 human melanoma, PC-3 human prostate adenocarcinoma, T47D human breast carcinoma, MXT mouse mammary cancer, or mouse B16 melanoma cells were implanted subcutaneously to develop the tumors. After 12-18 days when the tumor-bearing mice were first treated, the size of the tumors was in the 0.2-0.4 cm^3 range. All compounds used were dissolved in physiological (0.9%) saline (NaCl), and the agents, alone or in combinations, were applied subcutaneously or intraperitoneally in 50 μl volume. Tumor volume was determined by calipers in three dimensions; this technique is well known to one having ordinary skill in the art. Tumor volume was calculated according to the generally accepted formula: V=a^2×b×π/6, where “a” and “b” mean the shortest and longest diameter, respectively, of the measured tumor.
The mouse mammary MXT tumor was developed as described above. On day 7 after transplantation of tumor cells, the animals were either remained untreated (group 1) or were treated with 2 mg/kg of CisPt alone (Group 2), or 4 mg/kg of CisPt alone (Group 3), or 4.6 mg/kg of CCDTHT alone (Group 4), or 2 mg/kg of CisPt+4.6 mg/kg of CCDTHT (Group 5), or 4 mg/kg of CisPt+4.6 mg/kg of CCDTHT (Group 6). CCDTHT and CisPt were administered subcutaneously and intraperitoneally, respectively, once daily for 10 days, including a 2-day rest period after 5 days of treatment (i.e., the last treatment was on day 19). Each group consisted of 7 animals, and the mean values±std. dev. for tumor volumes and body weight are shown in TABLE 4 and TABLE 5, respectively. While in this tumor model CCDTHT alone reduced the tumor volume less effectively than in the human tumor models, it clearly added to the tumor volume-reducing effect of CisPt (TABLE 4). A dramatic reduction in tumor volume was particularly evident in Group 6 (4 mg/kg CisPt+4.6 mg/kg CCDTHT).
The mouse mammary MXT tumor model was developed and treated as described above. On day 7 the animals were either remained untreated (Group 1) or were treated with 3 mg/kg of CisPt (Group 2) or 3 mg/kg of CisPt+15 mg/kg of highly purified PALP (Group 3). CisPt and PALP were administered intraperitoneally and subcutaneously, respectively, seven times on every second day (i.e., treatments were terminated on day 21). Each group included 7 animals; the mean values±std. dev. for tumor volumes and body weight are shown in TABLE 6 and TABLE 7, respectively.
The mouse mammary MXT tumor model was developed and treated as described above. On day 7 the animals either remained untreated (Group 1) or were treated with 3 mg/kg CisPt (Group 2), 3 mg/kg CisPt+4.6 mg/kg of CCDTHT (Group 3), or 3 mg/kg CisPt+4.6 mg/kg of CCDTHT+15 mg/kg highly purified PALP (Group 4). CisPt was administered intraperitoneally 9-times once every second day; CCDTHT was administered for 15 days once daily; and PALP was administered 3 times every 3rd day. In each group 7 mice were included. The mean values±std. dev. for tumor volumes and body weights are shown in TABLE 9 and TABLE 10, respectively.

Data set [1] can be described thus: Body weight of animals in the MXT tumor model. Format: in vivo, mouse. To be noted: Example 31, CisPt 2 mg/kg i.p. and/or CCDTHT 4.6 mg/kg s.c. As for the experimental part:
The mouse mammary MXT tumor was developed as described above. […] CCDTHT and CisPt were administered subcutaneously and intraperitoneally, respectively, once daily for 10 days, including a 2-day rest period after 5 days of treatment (i.e., the last treatment was on day 19). Each group consisted of 7 animals, and the mean values±std. dev. for tumor volumes and body weight are shown in TABLE 4 and TABLE 5, respectively.
The mouse mammary MXT tumor model was developed and treated as described above. […] CisPt and PALP were administered intraperitoneally and subcutaneously, respectively, seven times on every second day (i.e., treatments were terminated on day 21). Each group included 7 animals; the mean values±std. dev. for tumor volumes and body weight are shown in TABLE 6 and TABLE 7, respectively.
The mouse mammary MXT tumor model was developed and treated as described above. […] In each group 7 mice were included. The mean values±std. dev. for tumor volumes and body weights are shown in TABLE 9 and TABLE 10, respectively.

Setting [2] is: CisPt 2 mg/kg i.p. and/or CCDTHT 4.6 mg/kg s.c., once daily.

For the compound `CC[N+](C)(CC)CCOCc1ccc2sc3ccccc3c(=O)c2c1.[I-]` [CCDTHT, N,N-diethyl-N-methyl-2-[(9-oxo-9H-thioxanthen-2-yl)methoxy]-ethanaminium iodide], in the data set with MXT tumor (CisPt 2 mg/kg and/or CCDTHT 4.6 mg/kg (groups 2, 4, 5)), the survival amounted to 30.6 ± 3.2 days. Besides, in the data set on MXT tumor (setting [2]), the “Tumor volume, Day 14” value was found to be 4.14 ± 0.71 cm^3; the “Tumor volume, Day 18” value was determined as 6.62 ± 0.43 cm^3; the “Tumor volume, Day 21” value came to 9.35 ± 0.69 cm^3. The “Tumor volume, Day 7” value in the data set on MXT tumor (CisPt 2 mg/kg i.p. and/or CCDTHT 4.6 mg/kg s.c., start of treatment) amounted to 0.43 ± 0.07 cm^3. In addition, in data set [1] (once daily), the “Body weight, Day 14” value was found to be 25.1 ± 0.84 g; the “Body weight, Day 18” value is reported as 26.9 ± 0.93 g; the “Body weight, Day 21” value turned out to be 28.8 ± 0.91 g. The “Body weight, Day 7” value in data set [1] (start of treatment) was 22.8 ± 0.82 g.
